Measured values from ChEMBL document CHEMBL4346705, “(±)-trans-Dihydronarciclasine and (±)-trans-dihydrolycoricidine analogues modified in their ring A: Evaluation of their anticancer activity and a SAR study” (2019).

Legend:
Assay type in all cases: functional
PC-3 = test: Antiproliferative activity against human PC3 cells assessed as cell viability at 10^-5 M incubated for 48 hrs by sulforhodamine B assay relative to control; details: PC-3, 48 h, read-out: Activity
SK-OV-3 = test: Antiproliferative activity against human SKOV3 cells assessed as cell viability at 10^-5 M incubated for 48 hrs by sulforhodamine B assay relative to control; details: SK-OV-3, 48 h, read-out: Activity
HCT-116 = test: Antiproliferative activity against human HCT116 cells assessed as cell viability at 10^-5 M incubated for 48 hrs by sulforhodamine B assay relative to control; details: HCT-116, 48 h, read-out: Activity
SF-539 = test: Antiproliferative activity against human SF539 cells assessed as cell viability at 10^-5 M incubated for 48 hrs by sulforhodamine B assay relative to control; details: SF-539, 48 h, read-out: Activity
EKVX = test: Antiproliferative activity against human EKVX cells assessed as cell viability at 10^-5 M incubated for 48 hrs by sulforhodamine B assay relative to control; details: read-out: Activity
T47D = test: Antiproliferative activity against human T47D cells assessed as cell viability at 10^-5 M incubated for 48 hrs by sulforhodamine B assay relative to control; details: read-out: Activity
ACHN = test: Antiproliferative activity against human ACHN cells assessed as cell viability at 10^-5 M incubated for 48 hrs by sulforhodamine B assay relative to control; details: read-out: Activity
RXF 393 = test: Antiproliferative activity against human RXF393 cells assessed as cell viability at 10^-5 M incubated for 48 hrs by sulforhodamine B assay relative to control; details: RXF 393, 48 h, read-out: Activity
NCI-H226 = test: Antiproliferative activity against human NCI-H226 cells assessed as cell viability at 10^-5 M incubated for 48 hrs by sulforhodamine B assay relative to control; details: NCI-H226, 48 h, read-out: Activity
CCRF-CEM = test: Antiproliferative activity against human CCRF-CEM cells assessed as cell viability at 10^-5 M incubated for 48 hrs by sulforhodamine B assay relative to control; details: read-out: Activity
UACC-62 = test: Antiproliferative activity against human UACC62 cells assessed as cell viability at 10^-5 M incubated for 48 hrs by sulforhodamine B assay relative to control; details: UACC-62, 48 h, read-out: Activity
SF-295 = test: Antiproliferative activity against human SF295 cells assessed as cell viability at 10^-5 M incubated for 48 hrs by sulforhodamine B assay relative to control; details: SF-295, 48 h, read-out: Activity
OVCAR-8 = test: Antiproliferative activity against human OVCAR8 cells assessed as cell viability at 10^-5 M incubated for 48 hrs by sulforhodamine B assay relative to control; details: OVCAR-8, 48 h, read-out: Activity
UO-31 = test: Antiproliferative activity against human UO31 cells assessed as cell viability at 10^-5 M incubated for 48 hrs by sulforhodamine B assay relative to control; details: UO-31, 48 h, read-out: Activity
SN12C = test: Antiproliferative activity against human SN12C cells assessed as cell viability at 10^-5 M incubated for 48 hrs by sulforhodamine B assay relative to control; details: read-out: Activity
TK-10 = test: Antiproliferative activity against human TK10 cells assessed as cell viability at 10^-5 M incubated for 48 hrs by sulforhodamine B assay relative to control; details: TK-10, 48 h, read-out: Activity
Hs-578T = test: Antiproliferative activity against human Hs 578T cells assessed as cell viability at 10^-5 M incubated for 48 hrs by sulforhodamine B assay relative to control; details: read-out: Activity
UACC-257 = test: Antiproliferative activity against human UACC257 cells assessed as cell viability at 10^-5 M incubated for 48 hrs by sulforhodamine B assay relative to control; details: UACC-257, 48 h, read-out: Activity
OVCAR-5 = test: Antiproliferative activity against human OVCAR5 cells assessed as cell viability at 10^-5 M incubated for 48 hrs by sulforhodamine B assay relative to control; details: OVCAR-5, 48 h, read-out: Activity
NCI-H522 = test: Antiproliferative activity against human NCI-H522 cells assessed as cell viability at 10^-5 M incubated for 48 hrs by sulforhodamine B assay relative to control; details: NCI-H522, 48 h, read-out: Activity
A498 = test: Antiproliferative activity against human A498 cells assessed as cell viability at 10^-5 M incubated for 48 hrs by sulforhodamine B assay relative to control; details: A498, 48 h, read-out: Activity
SW-620 = test: Antiproliferative activity against human SW620 cells assessed as cell viability at 10^-5 M incubated for 48 hrs by sulforhodamine B assay relative to control; details: SW-620, 48 h, read-out: Activity
786-0 = test: Antiproliferative activity against human 786-0 cells assessed as cell viability at 10^-5 M incubated for 48 hrs by sulforhodamine B assay relative to control; details: 786-0, 48 h, read-out: Activity
K562 = test: Antiproliferative activity against human K562 cells assessed as cell viability at 10^-5 M incubated for 48 hrs by sulforhodamine B assay relative to control; details: K562, 48 h, read-out: Activity
NCI-H460 = test: Antiproliferative activity against human NCI-H460 cells assessed as cell viability at 10^-5 M incubated for 48 hrs by sulforhodamine B assay relative to control; details: NCI-H460, 48 h, read-out: Activity
SNB-19 = test: Antiproliferative activity against human SNB19 cells assessed as cell viability at 10^-5 M incubated for 48 hrs by sulforhodamine B assay relative to control; details: SNB-19, 48 h, read-out: Activity
NCI-H23 = test: Antiproliferative activity against human NCI-H23 cells assessed as cell viability at 10^-5 M incubated for 48 hrs by sulforhodamine B assay relative to control; details: NCI-H23, 48 h, read-out: Activity
SK-MEL-2 = test: Antiproliferative activity against human SK-MEL-2 cells assessed as cell viability at 10^-5 M incubated for 48 hrs by sulforhodamine B assay relative to control; details: SK-MEL-2, 48 h, read-out: Activity
NCI/ADR-RES = test: Antiproliferative activity against human NCI-ADR-RES cells assessed as cell viability at 10^-5 M incubated for 48 hrs by sulforhodamine B assay relative to control; details: read-out: Activity
MOLT-4 = test: Antiproliferative activity against human MOLT4 cells assessed as cell viability at 10^-5 M incubated for 48 hrs by sulforhodamine B assay relative to control; details: MOLT-4, 48 h, read-out: Activity
SR = test: Antiproliferative activity against human SR cells assessed as cell viability at 10^-5 M incubated for 48 hrs by sulforhodamine B assay relative to control; details: read-out: Activity
Malme-3M = test: Antiproliferative activity against human MALME-3M cells assessed as cell viability at 10^-5 M incubated for 48 hrs by sulforhodamine B assay relative to control; details: read-out: Activity
NCI-H322M = test: Antiproliferative activity against human NCI-H322M cells assessed as cell viability at 10^-5 M incubated for 48 hrs by sulforhodamine B assay relative to control; details: read-out: Activity

Compound	viability at 10 µM (PC-3) [%]	viability at 10 µM (SK-OV-3) [%]	viability at 10 µM (HCT-116) [%]	viability at 10 µM (SF-539) [%]	viability at 10 µM (EKVX) [%]	viability at 10 µM (T47D) [%]	viability at 10 µM (ACHN) [%]	viability at 10 µM (RXF 393) [%]	viability at 10 µM (NCI-H226) [%]	viability at 10 µM (CCRF-CEM) [%]	viability at 10 µM (UACC-62) [%]	viability at 10 µM (SF-295) [%]	viability at 10 µM (OVCAR-8) [%]	viability at 10 µM (UO-31) [%]	viability at 10 µM (SN12C) [%]	viability at 10 µM (TK-10) [%]	viability at 10 µM (Hs-578T) [%]	viability at 10 µM (UACC-257) [%]	viability at 10 µM (OVCAR-5) [%]	viability at 10 µM (NCI-H522) [%]	also measured
O=C1NC2C(CC(O)C(O)C2O)c2cc3c(c(O)c21)OCO3 (racemic)	-8.66	-11.2	-1.49	-29.7	-26.3	-8.46	-45.5	-37.3	-38.3	2.84	-48.4	-11.5	-7.71	-31	-18.4	-12.6	-14.2	-21.8	-13.4	-32.6	viability at 10 µM (A498): -53.4%; viability at 10 µM (SW-620): -0.05%; viability at 10 µM (786-0): -10.8%; viability at 10 µM (K562): 1.86%; viability at 10 µM (NCI-H460): -15.1%; viability at 10 µM (SNB-19): -8.68%; viability at 10 µM (NCI-H23): -14.9%; viability at 10 µM (SK-MEL-2): -63.6%; viability at 10 µM (NCI/ADR-RES): 1.95%; viability at 10 µM (MOLT-4): -6.14%; viability at 10 µM (SR): 6.14%; viability at 10 µM (Malme-3M): -48.7%; viability at 10 µM (NCI-H322M): -14.7%
COc1cc2c(c3c1OCCO3)C(=O)NC1C2CC(O)C(O)C1O (racemic)	95.3	104	99.6	105	103	87.9	108	106	95.7	103	99.3	104	95.2	89.8	99.8	98	99.8	97.5	103	93	viability at 10 µM (A498): 100%; viability at 10 µM (SW-620): 107%; viability at 10 µM (786-0): 95.6%; viability at 10 µM (K562): 106%; viability at 10 µM (NCI-H460): 106%; viability at 10 µM (SNB-19): 100%; viability at 10 µM (NCI-H23): 102%; viability at 10 µM (SK-MEL-2): 110%; viability at 10 µM (NCI/ADR-RES): 111%; viability at 10 µM (MOLT-4): 105%; viability at 10 µM (SR): 97.1%; viability at 10 µM (Malme-3M): 103%; viability at 10 µM (NCI-H322M): 97.3%
